From ChEMBL document CHEMBL6127036, “Chaperoning system: Intriguing target to modulate the expression of CFTR in cystic fibrosis” (Eur J Med Chem, 2024)
pEC50: −log10 of the molar value.

Experiments:
[1] = system: Cystic fibrosis transmembrane conductance regulator (Homo sapiens), P13569 [F508del]; test: Inhibition of CFTR F508del mutant (unknown origin) in FRT cells; assay type: cell-based
[2] = target: Cystic fibrosis transmembrane conductance regulator (Homo sapiens) (UniProt P13569); test: Activation of human CFTR expressed in rat FRT cells at 30 uM relative to control; assay type: cell-based; settings: filed as activator
[3] = Inhibition of HSP70 (unknown origin) expressed in human HeLa cells; assay type: cell-based
[4] = target: Cystic fibrosis transmembrane conductance regulator (Homo sapiens) (UniProt P13569); test: Inhibition of CFTR (unknown origin) at 10 uM relative to control

Chain of Cystic fibrosis transmembrane conductance regulator (Homo sapiens), P13569 [F508del] (P13569 as listed by the source): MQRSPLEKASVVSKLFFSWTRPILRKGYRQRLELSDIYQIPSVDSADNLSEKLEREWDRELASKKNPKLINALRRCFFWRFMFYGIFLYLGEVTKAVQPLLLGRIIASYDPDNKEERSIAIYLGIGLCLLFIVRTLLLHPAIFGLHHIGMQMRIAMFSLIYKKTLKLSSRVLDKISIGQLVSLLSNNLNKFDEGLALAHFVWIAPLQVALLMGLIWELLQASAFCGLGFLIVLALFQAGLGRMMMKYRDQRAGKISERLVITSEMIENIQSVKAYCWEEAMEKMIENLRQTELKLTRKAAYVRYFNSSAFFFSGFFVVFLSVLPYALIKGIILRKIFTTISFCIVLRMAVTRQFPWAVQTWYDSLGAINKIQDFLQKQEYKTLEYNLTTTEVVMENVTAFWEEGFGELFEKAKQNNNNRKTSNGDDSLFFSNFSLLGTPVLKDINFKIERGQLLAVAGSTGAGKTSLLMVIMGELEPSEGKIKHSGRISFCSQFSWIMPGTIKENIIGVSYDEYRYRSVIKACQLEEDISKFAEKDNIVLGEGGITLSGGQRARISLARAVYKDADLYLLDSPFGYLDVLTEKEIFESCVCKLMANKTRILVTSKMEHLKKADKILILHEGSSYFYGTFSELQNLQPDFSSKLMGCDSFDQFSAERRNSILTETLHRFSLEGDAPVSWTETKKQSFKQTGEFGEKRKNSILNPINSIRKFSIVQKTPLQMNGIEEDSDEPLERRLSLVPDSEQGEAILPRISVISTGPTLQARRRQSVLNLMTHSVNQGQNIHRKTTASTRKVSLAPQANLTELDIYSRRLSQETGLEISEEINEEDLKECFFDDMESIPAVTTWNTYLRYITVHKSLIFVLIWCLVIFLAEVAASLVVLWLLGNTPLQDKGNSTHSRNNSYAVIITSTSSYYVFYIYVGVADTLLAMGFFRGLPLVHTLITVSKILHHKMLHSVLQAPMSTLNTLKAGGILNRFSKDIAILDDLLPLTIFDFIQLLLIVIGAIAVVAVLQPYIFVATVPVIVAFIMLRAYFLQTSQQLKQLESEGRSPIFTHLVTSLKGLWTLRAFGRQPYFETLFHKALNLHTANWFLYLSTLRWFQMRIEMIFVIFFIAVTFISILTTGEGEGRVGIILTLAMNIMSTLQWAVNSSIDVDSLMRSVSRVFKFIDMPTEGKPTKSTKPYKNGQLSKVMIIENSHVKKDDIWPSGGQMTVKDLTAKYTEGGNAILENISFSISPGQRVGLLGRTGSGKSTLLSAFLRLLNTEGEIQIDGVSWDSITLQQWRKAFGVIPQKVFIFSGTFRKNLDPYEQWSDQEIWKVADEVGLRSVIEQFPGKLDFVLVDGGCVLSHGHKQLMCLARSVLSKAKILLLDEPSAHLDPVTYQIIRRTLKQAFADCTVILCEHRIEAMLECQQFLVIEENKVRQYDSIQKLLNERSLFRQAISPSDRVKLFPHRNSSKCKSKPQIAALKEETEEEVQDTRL
Chain of Cystic fibrosis transmembrane conductance regulator (Homo sapiens) (P13569 whole entry, looked up): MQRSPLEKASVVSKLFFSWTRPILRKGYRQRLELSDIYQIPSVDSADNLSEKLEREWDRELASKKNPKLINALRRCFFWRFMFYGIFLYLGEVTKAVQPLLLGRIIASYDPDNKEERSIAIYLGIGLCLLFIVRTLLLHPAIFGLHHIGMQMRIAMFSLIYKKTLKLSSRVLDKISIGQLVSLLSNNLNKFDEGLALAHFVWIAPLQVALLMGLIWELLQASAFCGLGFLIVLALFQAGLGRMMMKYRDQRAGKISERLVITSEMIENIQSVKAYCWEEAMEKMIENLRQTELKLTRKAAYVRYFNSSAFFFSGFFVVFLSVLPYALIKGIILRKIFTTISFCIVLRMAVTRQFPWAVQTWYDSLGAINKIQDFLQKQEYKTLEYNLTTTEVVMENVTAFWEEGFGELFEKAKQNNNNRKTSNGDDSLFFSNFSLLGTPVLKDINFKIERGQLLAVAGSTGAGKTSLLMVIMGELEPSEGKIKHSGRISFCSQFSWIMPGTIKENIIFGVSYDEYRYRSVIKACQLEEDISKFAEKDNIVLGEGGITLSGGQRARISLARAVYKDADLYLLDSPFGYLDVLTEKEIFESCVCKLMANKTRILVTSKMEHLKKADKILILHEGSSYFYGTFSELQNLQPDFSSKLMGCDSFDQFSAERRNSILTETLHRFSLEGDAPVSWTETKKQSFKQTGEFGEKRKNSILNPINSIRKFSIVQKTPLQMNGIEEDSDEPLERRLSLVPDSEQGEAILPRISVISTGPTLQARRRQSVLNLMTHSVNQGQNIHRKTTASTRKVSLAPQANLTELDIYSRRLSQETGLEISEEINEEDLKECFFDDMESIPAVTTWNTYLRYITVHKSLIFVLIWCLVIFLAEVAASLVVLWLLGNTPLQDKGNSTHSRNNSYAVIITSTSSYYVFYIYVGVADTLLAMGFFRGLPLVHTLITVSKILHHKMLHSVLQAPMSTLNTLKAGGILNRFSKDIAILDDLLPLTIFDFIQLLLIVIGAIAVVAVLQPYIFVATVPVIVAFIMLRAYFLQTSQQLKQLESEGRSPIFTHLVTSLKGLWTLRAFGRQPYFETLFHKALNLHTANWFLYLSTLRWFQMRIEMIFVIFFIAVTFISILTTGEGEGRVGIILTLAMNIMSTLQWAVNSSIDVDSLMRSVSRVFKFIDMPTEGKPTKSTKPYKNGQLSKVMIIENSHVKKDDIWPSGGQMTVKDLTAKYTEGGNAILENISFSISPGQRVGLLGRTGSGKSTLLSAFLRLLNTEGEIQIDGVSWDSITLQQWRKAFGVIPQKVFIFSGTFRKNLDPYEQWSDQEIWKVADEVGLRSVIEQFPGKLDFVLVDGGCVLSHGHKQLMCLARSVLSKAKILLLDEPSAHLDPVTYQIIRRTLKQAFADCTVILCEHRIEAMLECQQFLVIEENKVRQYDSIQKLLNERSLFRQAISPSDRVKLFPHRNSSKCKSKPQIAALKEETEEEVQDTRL

Structure (SMILES) | fold change (FC) [1] | pEC50 [3] | also measured
N#CCc1nnc(-c2ccccn2)[nH]1 | 25 | – | –
O=C1CCC[C@@H]2[C@H]3CCCN4CCC[C@@H](CN12)[C@@H]34 | – | – | Activity [2]: 53%
N=C(N)NCCCC[C@H](O)CC(=O)N[C@@H](O)C(=O)NCCCCNCCCN | – | 5.27 | –
N=C(N)NCCCCCCC(=O)N[C@@H](O)C(=O)NCCCCNCCCN | – | 5.27 | –
N#CC1=C(N)Oc2[nH]nc(-c3ccc(F)cc3)c2C1c1c[nH]nc1-c1ccc(F)cc1 (stereo unspecified) | – | – | inhibition [4]: 70%
CCN(CC)c1ccc(N/N=C2\C(=O)C=Cc3ccccc32)cc1 | 15 | – | –
